Reference: US9714249B2 (Novartis AG, priority 2013, dated 2017)

Key:
[1] = molecular target: BRD4-NUT-fusion (Homo sapiens (Human), UniProt O60885+Q86Y26); assay: Nut-foci formation assay (HCS) in HCC2494 NUT midline carcinoma cells; format: cell-based; settings: 24 hours, nuclear BRD4-NUT foci, immunofluorescence
Experimental: Compound-mediated inhibition of BRD4 activity was monitored by quantification of the number and intensity of nuclear BRD4-NUT foci using automated immunofluorescence microscopy. Briefly, 5000 cells in 20 μl fresh medium were seeded into Poly-D-Lysine-precoated 384-well plates and incubated overnight at 37° C. and 5% CO2, followed by addition of 5 μl medium containing compound dilutions at 5-fold their final intended concentration. Dose-response effects were assessed by 3-fold serial dilutions of the test compound, starting at 10 μM. […] Assay plates were imaged using the appropriate filter sets on the Cellomics VTi automated fluorescence microscopy platform (ThermoFisher Scientific) and the population average of the number of NUT-foci per nucleus is quantified using the Cellomics Spot Detection BioApplication image analysis algorithm (ThermoFisher Scientific). The effect of a particular test compound concentration on NUT-foci number and intensity is expressed as percentage of the value obtained for cells treated with vehicle only (DMSO, 0.1% final concentration), which was set as 100.

[2] = molecular target: BRD2 (His-Brd2(60-472)) (Homo sapiens (Human), UniProt P25440); assay: TR-FRET in-vitro binding assay for BRD2; settings: acetyl-histone H4 peptide
BRD2 (His-Brd2(60-472)), sequence (P25440 60-472, species assumed): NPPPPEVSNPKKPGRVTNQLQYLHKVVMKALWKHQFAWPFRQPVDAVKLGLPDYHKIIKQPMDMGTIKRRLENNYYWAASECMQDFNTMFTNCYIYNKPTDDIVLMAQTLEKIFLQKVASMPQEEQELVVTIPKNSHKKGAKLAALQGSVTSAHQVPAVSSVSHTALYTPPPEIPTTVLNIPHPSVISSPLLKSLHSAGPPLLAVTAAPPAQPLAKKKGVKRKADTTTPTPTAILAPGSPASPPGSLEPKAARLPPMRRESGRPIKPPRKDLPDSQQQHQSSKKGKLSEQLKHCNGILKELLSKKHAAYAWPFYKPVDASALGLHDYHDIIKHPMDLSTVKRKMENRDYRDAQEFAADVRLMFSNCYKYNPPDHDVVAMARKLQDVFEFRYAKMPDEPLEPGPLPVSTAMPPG
Experimental: All assays were performed in 384 well microtiter plates. Each assay plate contained 8-point serial dilutions for 40 test compounds, plus 16 high- and 16 low controls. Liquid handling and incubation steps were done on an Innovadyne Nanodrop Express equipped with a robotic arm (Thermo CatX, Perkin Elmer/Caliper Twister II) and an incubator (Liconic STX40, Thermo Cytomat 2C450). The assay plates were prepared by addition of 50 nl per well of compound solution in 90% DMSO HummingBird nanodispenser (Zinsser Analytic). The assay was started by stepwise addition of 4.5 μl per well of bromo domain protein (50 mM HEPES, pH 7.5, 0.005% Tween20, 0.1% BSA, 50 mM NaCl, 45 nM His-Brd2(60-472) or 45 nM His-Brd3(20-477) or 45 nM His-Brd4(44-477) all proteins produced in-house) and 4.5 μl per well of peptide solution (50 mM HEPES, pH 7.5, 0.005% Tween20, 0.1% BSA, 50 mM NaCl, 60 nM acetyl-histone H4 (AcK 5, 8, 12, 16) (Biosyntan GmbH)). Reactions were incubated at 30° C. for 35 minutes. Subsequently 4.5 μl per well detection mix (50 mM HEPES, pH 7.5, 0.005% Tween20, 0.1% BSA, 50 mM NaCl, 3 nM Eu-labeled anti-His6 antibody, 21 nM streptavidin-allophycocyanin) were added. After 35 minutes incubation at 30° C., plates were measured in a Perkin Elmer EnVision multilabel reader. Concentrations causing 50% inhibition (1050) values were determined from percent inhibition values at different compound concentrations by non-linear regression analysis.
Test compounds were dissolved in DMSO (10 mM) and transferred into 1.4 mL flat bottom or V-shaped Matrix tubes carrying a unique 2D matrix. The stock solutions were stored at […] if not used immediately. For the test procedure the vials were defrosted and identified by a scanner whereby a working sheet was generated that guided the subsequent working steps. Compound dilutions were made in 96 well plates. This format enabled the assay of maximally 40 individual test compounds at 8 concentrations (single points) including 4 reference compounds, if desired (known BET inhibitors from the prior art, for this and other assays of the type disclosed herein). The dilution protocol included the production of “pre-dilution plates”, “master plates” and “assay plates”.
Pre-dilution plates: 96 polypropylene well plates were used as pre-dilution plates. A total of 4 pre-dilution plates were prepared including 10 test compounds each on the plate positions A1-A10, one standard compound at A11 and one DMSO control at A12. All dilution steps were done on a HamiltonSTAR robot. Master plates: 30 μL of individual compound dilutions including standard compound and controls of the 4 “pre-dilution plates” were transferred into a 384 “master plate” including the following concentrations 10000, 3003, 1000, 300, 100, 30, 10 and 3 μM, respectively in 90% of DMSO. Assay plates: Identical “assay plates” were then prepared by pipetting 50 nL each of compound dilutions of the “master plates” into 384-well “assay plates” by means of a HummingBird 384-channel dispenser. These plates were used directly for the assay which was performed in a total volume of 13.55 μL. This led to a final compound concentration of 37, 11, 3.7, 1.1, 0.37, 0.11, 0.037 and 0.011 μM and a final DMSO concentration of 0.37% in the assay. Cell Growth Inhibition Assay

Structure (SMILES) | IC50 [1] [nM] | IC50 [2] [nM]
Cc1[nH]nc2c1C(=O)N(c1cc(Cl)c(=O)n(C)c1)C2c1ccc(Cl)cc1 (stereo not shown) [Example 6, 5-(5-chloro-1-methyl-6-oxo-1,6-dihydropyridin-3-yl)-6-(4-chlorophenyl)-3-methyl-5,6-dihydropyrrolo[3,4-c]pyrazol-4(2H)-one] | 108 | 94
Cc1cc(N2C(=O)c3c(C4CC4)nn(CCO)c3C2c2ccc(Cl)cc2)cn(C)c1=O (stereo not shown) [Example 3, 6-(4-chlorophenyl)-3-cyclopropyl-5-(1,5-dimethyl-6-oxo-1,6-dihydropyridin-3-yl)-1-(2-hydroxyethyl)-5,6-dihydropyrrolo[3,4-c]pyrazol-4(1H)-one] | 49 | 42
COc1ccc(-n2nc3c(c2C)C(=O)N(c2cc(C)c(=O)n(C)c2)C3c2ccc(Cl)cc2)cn1 (stereo not shown) [Example 20a, 6-(4-chlorophenyl)-5-(1,5-dimethyl-6-oxo-1,6-dihydropyridin-3-yl)-2-(6-methoxypyridin-3-yl)-3-methyl-5,6-dihydropyrrolo[3,4-c]pyrazol-4(2H)-one] | 73.6 | 61
Cc1nn(-c2cccnc2F)c2c1C(=O)N(c1cc(C)c(=O)n(C)c1)C2c1ccc(Cl)cc1 (stereo not shown) [Example 19, 6-(4-chlorophenyl)-5-(1,5-dimethyl-6-oxo-1,6-dihydropyridin-3-yl)-1-(2-fluoropyridin-3-yl)-3-methyl-5,6-dihydropyrrolo[3,4-c]pyrazol-4(1H)-one] | 66.7 | 80
COc1ncc(-n2nc(C)c3c2C(c2ccc(Cl)cc2)N(c2cc(Cl)c(=O)n(C)c2)C3=O)cn1 (stereo not shown) [Example 8a, 5-(5-chloro-1-methyl-6-oxo-1,6-dihydropyridin-3-yl)-6-(4-chlorophenyl)-1-(2-methoxypyrimidin-5-yl)-3-methyl-5,6-dihydropyrrolo[3,4-c]pyrazol-4(1H)-one] | 298 | 120

Next, values leading:

IC50 [1] [nM] | IC50 [2] [nM] | Structure (SMILES)
29.9 | 15 | COCCn1nc(C2CC2)c2c1C(c1ccc(Cl)cc1)N(c1cc(C)c(=O)n(C)c1)C2=O (stereo not shown) [Example 4, 6-(4-chlorophenyl)-3-cyclopropyl-5-(1,5-dimethyl-6-oxo-1,6-dihydropyridin-3-yl)-1-(2-methoxyethyl)-5,6-dihydropyrrolo[3,4-c]pyrazol-4(1H)-one]
40.3 | 53 | COc1ncccc1-n1nc2c(c1C)C(=O)N(c1cc(C)c(=O)n(C)c1)C2c1ccc(Cl)cc1 (stereo not shown) [Example 17b, 6-(4-chlorophenyl)-5-(1,5-dimethyl-6-oxo-1,6-dihydropyridin-3-yl)-2-(2-methoxypyridin-3-yl)-3-methyl-5,6-dihydropyrrolo[3,4-c]pyrazol-4(2H)-one]
48.4 | 52 | Cc1nn(C(C)C)c2c1C(=O)N(c1cc(C)c(=O)n(C)c1)C2c1ccc(Cl)cc1 (stereo not shown) [Example 12, 6-(4-chlorophenyl)-5-(1,5-dimethyl-6-oxo-1,6-dihydropyridin-3-yl)-1-isopropyl-3-methyl-5,6-dihydropyrrolo[3,4-c]pyrazol-4(1H)-one]
